From patent publication US9645138B2, “Method to evaluate the tissue targeting of a molecule of interest” (IMABIOTECH, priority 2013, dated 2017) come the findings set out here.

For data set [1], the system named is receptor in the brain (GABA). Kind of data set: Receptor occupancy / adsorption by MALDI imaging of rat brain sections, Diazepam dosed and Lorazepam washing (Example 2). The text has this:
FIG. 7 explains the methodology of adsorption of a molecule on tissue using the example of the receptor occupancy process. In this way, it is possible to measure the occupancy efficiency of the receptor by the drug (agonist) administered to the animal compared with an antagonist molecule. In this example, all the steps of the methodology are described: the dosed tissue analysis alone, the washing step with the antagonist solution of the control tissue and the combined dosed/washing analysis of the administrated sample. No negative marker is required for this kind of experiment.
Of course, in an almost identical manner an imaging device other that MALDI can be used, such as the following: SIMS, DESI, DIOS, ICP, MALDI microscope, SNOM, SMALDI, LA-ICP, ESI (liquid extraction on tissue), MILDI, JEDI, ELDI, etc.
Wild-type rats weighing 35-40 g were used. […] Animals (dosed and control rats) were sacrificed by CO2 asphyxiation. […] Finally, brains were stored at −80° C.
Brains (control and dosed tissues) were sectioned into 10 μm thick layers (coronal section) using a Microm HM560 (Thermo Scientific, France) cooled at −20° C.
The antagonist solution was prepared from a stock solution of Lorazepam at 1 mg/ml in methanol (100%). The final concentration of the washing solution was fixed at 100 pmol/μL in methanol/water+0.1% TFA (7:3). The concentration of the antagonist is a crucial factor for receptor occupancy that improves the binding capacity of the molecule. 20 μL of the solution was spotted on the tissue section (one dosed and one control sample) and then incubated for 1 hour at 37° C. in a box inside an INCU-Line incubator (VWR, France). A dosed brain section without washing was also put in the incubator.
After incubation, tissues were washed using 2 steps to remove unbound molecules from the tissue, firstly with a solution of methanol/water+0.1% TFA (7:3) corresponding to the antagonist washing solution. Secondly, the tissue is washed using only water solution (10 mL) and then placed into a desiccator for 15 min.
A DHB matrix was used for the analysis of all brain tissue sections with or without washing with the Lorazepam solution. This matrix was prepared at a concentration of 40 mg/ml in methanol/water+0.1% TFA (1:1, v/v).
The data was generated in positive reflectron mode.
The F2 factor allows comparison of the fine localization of the agonist and the antagonist in the white matter region and gives information about their similarity or dissimilarity.

The conditions of data set [2]: Swiss, mouse, in vivo.
Description: (§1) The target tissue, hereinafter “tissue 1”, comprises the medulla and renal calices.
(§2) The non-target adjacent tissue, hereinafter “tissue 2”, is also considered and comprises the renal cortex region.
(§3) Wild-type mice of Swiss strain weighing 25-40 g from Charles River Laboratories were used. […] Mice were sacrificed by CO2 asphyxiation. Kidneys were then removed and plunged into 100% isopentane solution cooled by liquid nitrogen for rapid freezing. Finally, kidneys were stored at −80° C.
(§4) Kidneys were sectioned into 10 μm thick layers (sagittal sections) using a Microm HM560 (Thermo Scientific, France) cooled at −21° C. The sections were then deposited on conductive ITO (indium tin oxide) slides (Delta Technology, USA). Finally, the sections were kept in the cryostat chamber 30 min for cryodrying and then placed in a desiccator for 30 minutes.
(§5) A CHCA matrix was used for the analysis of all kidney tissue sections. This matrix was prepared at a concentration of 10 mg/ml in acetonitrile/water+0.1% TFA (6:1, v/v). The matrix solution was deposited using the SunCollect spraying system (SunChrom, Germany) following optimized protocol.
(§6) The images were obtained using an AutoFlex Speed MALDI-TOF mass spectrometer (Bruker Daltonics, Bremen, Germany) equipped with a Smartbeam II laser. The data was generated in positive reflectron mode. A total of 500 spectra were obtained for each spot with a 1000 Hz laser frequency and a 200×200 μm^2 image spatial resolution on a mass range of 100 to 1000 Da. The FlexImaging version 4.0 software was used to reconstruct the images and Quantinetix 1.6 software (ImaBiotech, Loos, France) permitted the extraction of spectral intensities of ions corresponding to each studied molecule.
(§7) The imaging data treatment software Quantinetix is used to extract relative intensities of each ion of interest and control compound for each position (or voxel) within each drawn region.
(§8) The next step is to normalize the whole dataset in order to compare them. The highest intensity related to each ion is used to normalize the intensities per position. One calculates mean normalized intensities for each ion and tissue type.
(§9) By definition, one considers that positive control compound factor F1 is equal to 100% whereas negative control compound factor F1 is equal to 0%.
(§10) F2 factor calculation is performed using normalized intensity values from the previous F1 factor evaluation. Position per position, one assesses the standard deviations of intensity values of the molecule of interest and the negative control with positive control one at the level of the target tissue (T1).
(§11) By definition, the positive control compound's factor F2 is considered equal to 100% whereas the negative control compound's factor F2 is equal to 0%.
Data set [3] is described as follows: MALDI mass spectrometry imaging of mouse kidney sections after oral co-administration (Example 1).
Description: as §1, §2, §3, §4, §5, §6, §7, §8, §9, §10, §11
Setting [4] is: rat brain targeted area T1, positive marker Lorazepam = 100%.
Where [5] appears, read: mouse kidney target tissue T1, positive control 100% and negative control 0% by definition.

Like-named read-outs stand apart in the source and are kept apart here.

For `O=C1Nc2ccc(Cl)cc2C(c2ccccc2Cl)=NC1O` (centres unmarked) [Lorazepam], the “localization on the brain section (MSI)” value in data set [1] (control tissue section washed with the Lorazepam solution (100 pmol/μL, 1 hour at 37° C.)) is “especially in the white matter”. In addition, in data set [1] (setting [4]), the “F1 (%)” value is listed as 100% and the “F2 (%)” value is reported as 100%. Further, the “Normalized mean intensity/Tissue T1” value in data set [1] (rat brain, targeted area T1 (white matter, receptor binding site), Diazepam 15 mg/kg i.v., Lorazepam washing 100 pmol/μL) was found to be 0.821. For the same molecule, the “Normalized mean intensity/Tissue T2” value in data set [1] (rat brain, untargeted area T2 (rest of the brain), Diazepam 15 mg/kg i.v., Lorazepam washing 100 pmol/μL) is recorded as 0.21. Further, the “% Tar (targeting coefficient)” value in data set [1] (target area (Receptor) T1, rat brain) is recorded as 100%.

Turning to `CN1C(=O)CC(C)(c2ccccc2)C1=O` (centres unmarked) [Methsuximide], in data set [2], the “% Tg (global targeting coefficient)” value came to 0%, the “F1 (%)” value is on record as 0% and the “F2 (%)” value amounted to 0%. Also, in data set [2] (po, 8 mg/kg), the “Mean normalized intensity per tissue T1” value was 0.062 and the “Mean normalized intensity per tissue T2” value turned out to be 0.241.

As for `CC[C@@H]([C@H](C)O)n1ncn(-c2ccc(N3CCN(c4ccc(OC[C@@H]5CO[C@@](Cn6cncn6)(c6ccc(F)cc6F)C5)cc4)CC3)cc2)c1=O` [Posaconazole], the “% Tg (global targeting coefficient)” value in data set [3] (mouse kidney target tissue T1) is on record as 100%. In addition, in data set [3] (setting [5]), the “F1 (%)” value is listed as 100% and the “F2 (%)” value stood at 100%. Besides, the “Mean normalized intensity per tissue T2” value in data set [3] (mouse kidney, non target tissue T2 (renal cortex), oral 8 mg/kg, MALDI imaging) stood at 0.055. The “Mean normalized intensity per tissue T1” value in data set [3] (mouse kidney, target tissue T1 (medulla), oral 8 mg/kg, MALDI imaging) is listed as 0.281.

For `Cc1cc2c(s1)Nc1ccccc1N=C2N1CCN(C)CC1` [Olanzapine], the “% Tg (global targeting coefficient)” value in data set [3] (mouse kidney target tissue T1) is 40%. Further, the “F1 (%)” value in data set [3] (setting [5]) stood at 52.2%. Also, in data set [3] (mouse kidney, oral 8 mg/kg), the “distribution in the kidney section (MS image, FIG. 6)” value is recorded as “mainly localized in the right half section of the medulla”. For the same molecule, in data set [3] (mouse kidney, summary of Example 1), the “affinity / targeting behavior for the medulla region” value was “mean affinity”.
